Reference: article PMC7010350 (ACS chemical biology, 2019)

Key:
Assay type in all cases: physicochemical
[1] = Thermostability, heat treatment at 95 °C for 2 h, LC-MS
[2] = Susceptibility of the disulfide bond to reduction with DTT or β-mercaptoethanol; conditions: LC-MS
[3] = Solubility of the lyophilized peptide on resuspension in water or methanol; conditions: aqueous suspension relyophilized and resuspended in methanol

Substance | thermally induced unthreading (in words) [1] | peptide reduced, 20 mM DTT with heating ([2]; 20 mM DTT, 95 °C for 2 h) | reduction of the disulfide bond, 20 mM DTT, room temperature ([2]; 20 mM DTT, room temperature 1 h, aqueous peptide 5.8 mg/mL) | peptide reduced, 5% β-ME with heating (in words) ([2]; 5% (~641 mM) β-mercaptoethanol, 95 °C for 2 h) | solubility in methanol (in words) [3]
pandonodin C16A C21A [pandonodin AA] | significantly more pandonodin AA unthreaded than did wild-type pandonodin | – | – | – | –
pandonodin | only minimal unthreading | less than 10% | no reduction products were observed | a majority of pandonodin was reduced | readily dissolved
